“Also recorded” adds a separate entry of the source.
Experiments:
Type in all cases: in vivo, mouse
NOD/SCID/MPSVII mice = assay: huMSC transplantation with LLP2A-Ale in immunodeficient mice
Source text: Human MSCs (huMSCs) were obtained and injected together with LLP2A-Ale to immunodeficient mice, NOD/SCID/mucopolysaccharidosis type VII (MPSVII). This mouse strain lacked the β-glucuronidase (GUSB) enzyme. The donor cells could be easily detected using biochemical detection of β-glucuronidase (See Meyerrose, T. E., et al., Stem Cells, 2007. 25(1): p. 220-7; Meyerrose, T. E., et al., Stem Cells, 2008. 26(7): p. 1713-22). At three-month of age, the mice received a single intravenous (i.v.) injection of either vehicle (100 μl PBS/mouse), huMSCs (5×10^5/100 μl/PBS/mouse), huMSCs+LLP2A (5 nM/mouse) or huMSCs+LLP2A-Ale (500 ng/mouse; total compound weight 3.5 μg, with alendronate concentration of 500 ng/mouse). The alendronate dose we used for the study was approximately one-fifth of the therapeutic dose for the treatment of osteoporosis (See Colon-Emeric, C. S., JAMA, 2006, 296(24): p. 2968-9; Ma, Y. L., et al., Endocrinology, 2003. 144(5): p. 2008-15). […] HuMSC, as shown by GUSB+red stain, were only present at the trabecular bone surface in the LLP2A-Ale-treated group (lower panel). There was no demonstrable GUSB activity in the lung, liver, kidney and LVB that received PBS (top panels) or huMSCs (middle panel). Cancellous bone mass in the vertebral body was—more than 40% higher in the group treated with MSC+LLP2A-Ale (cancellous bone volume, BV/TV 13.9±2.2%) compared to PBS (BV/TV 9.4±1.7%), MSC (BV/TV 10.2±1.9%) or MSC+LLP2A (BV/TV 10.5±0.5%) controls three weeks after a single injection of huMSC and LLP2A-Ale.
In FIG. 8, Three-month-old MSPVII mice received a single intravenous injection of either of PBS, huMSC (5×10^5) or huMSC+LLP2A or LLP2A-Ale. The mice were sacrificed 24 hours later. Following sacrifice, small portions of organ including lumbar vertebral bodies (LVB) were harvested and frozen in Optimal Cutting Temperature embedding media. The sections were stained using naphthol-AS-BI-β-Dglucuronide (GUSB) as a substrate. Representative sections from lung, liver, kidney and lumbar vertebral (LVB) trabecular bone regions were presented. […] Isolated GUSB-positive cells were also observed within bone marrow of the LVB in […] group.
The NOD-SCID MPSVII strain was the result of extensive backcrossing of the mutant GUSB allele from the B6.C-H-2^bm1/ByBirgus^mps/+ mouse onto the NOD/LtSz-scid background. Animals were bred and maintained at the Stem Cell Department of the UC Davis Medical Center under approved animal care protocols. Affected animals were generated by breeding mice heterozygous for the MPSVII mutation. Homozygous GUSB-deficient pups were identified at birth by biochemical analysis of toe tissue.
Serum levels of the amino terminal propeptide of type 1 procollagen (P1NP), osteocalcin and C-terminal telopeptides of type I collagen (CTX-I) were measured using mouse sandwich ELISA kits from Biomedical Technologies (Stroughton, Mass.) or Immunodiagnostic System (Fountain Hills, Ariz.). The manufacturer's protocols were followed and all samples were assayed in duplicate. A standard curve was generated from each kit and the absolute concentrations were extrapolated from the standard curve. The coefficients of variations (CVs) for inter-assay and intra-assay measurements were less than 10% for all assays and are similar to the manufacturer's references (Yao, W., et al., Arthritis Rheum, 2008, 58(6): p. 1674-86; Yao, W., et al., Arthritis Rheum, 2008, 58(11): p. 3485-3497).
After fixation in 4% paraformaldehyde, the right distal femurs, mid-femurs and the 5th lumbar vertebral bodies were dehydrated in graded concentrations of ethanol and xylene and embedded un-decalcified in methyl methacrylate. The frontal sections (8 μm thick) were cut using a vertical bed microtome (Leica/Jung 2265) and affixed to slides coated with a 2% gelatin solution. Unstained 8-μm-thick sections were used for assessing fluorochrome labeling and dynamic changes in bone. […]

C57BL/6 mice = assay: Age-related trabecular bone loss after peak bone acquisition
Source text: FIGS. 18A and B show LLP2A-Ale increases bone formation parameters at the trabecular DF (P<0.05) in C57BL/6 mice.

129SvJ mice = test system: 129SvJ mice
[1] = 5th lumbar vertebral body, three weeks, co-injected with huMSC
[2] = serum, three weeks, co-injected with huMSC
[3] = three weeks following huMSCs transplantation

**Q.** `Cc1ccccc1NC(=O)Nc1ccc(CC(=O)N[C@@H](CCCCNC(=O)/C=C/c2cccnc2)C(=O)N[C@@H](CCCC(=O)O)C(=O)NC2(C(=O)NCCOCCOCCNC(=O)CCC(=O)NCCOCCOCCNC(=O)CCC(=O)N[C@@H](CCCCNC(=O)[C@H](N)CSC3CC(=O)N(CC4CCC(C(=O)NCCCC(O)(P(=O)(O)O)P(=O)(O)O)CC4)C3=O)C(N)=O)CCCCC2)cc1` (stereo partly drawn) [LLP2A-Ale, LLP2A-Alendronate] was tested. Which “osteoblasts and osteocytes at cortical and trabecular bone regions in LVB” value (NOD/SCID/MPSVII mice; 3 weeks following co-injection with GFP-labeled huMSCs) did it give?
**A.** increased

**Q.** And the mineral apposition rate (NOD/SCID/MPSVII mice; [1])?
**A.** significant increases

**Q.** And the osteoblast surface (NOD/SCID/MPSVII mice; [1])?
**A.** significant increases

**Q.** What about the “surface-based bone formation rate (BFR/BS)” value (NOD/SCID/MPSVII mice; [1]) of the same compound?
**A.** significant increases

**Q.** And the “huMSCs (GUSB+) on/adjacent to bone surface” value (NOD/SCID/MPSVII mice; 24 hours after single i.v. injection of huMSCs with compound)?
**A.** greatly increased; also recorded: Significant amount; also recorded: seen accumulated in bone marrow, adjacent to both trabecular and periosteal bone surfaces

**Q.** And the intra-cortical bone remodeling (NOD/SCID/MPSVII mice; mid-femur, three weeks, co-injected with huMSC)?
**A.** markedly increased

**Q.** What about the osteocalcin (NOD/SCID/MPSVII mice; [2]) of the same compound?
**A.** significant increases

**Q.** And the “procollagen 1 N-terminal propeptide (P1NP)” value (NOD/SCID/MPSVII mice; [2])?
**A.** significant increases

**Q.** And the “cancellous bone mass in the vertebral body, higher compared to controls” value (NOD/SCID/MPSVII mice; three weeks after single injection of huMSC and compound, vs PBS, MSC, MSC+LLP2A)?
**A.** more than 40%

**Q.** What about the “huMSCs (GUSB+) adjacent to/retained in bone” value (NOD/SCID/MPSVII mice; three weeks after transplantation, co-injected with huMSCs) of the same compound?
**A.** only seen adjacent to the bone surface; also recorded: retention of the transplanted huMSCs in bone

**Q.** And the cortical bone formation (NOD/SCID/MPSVII mice; [3])?
**A.** increases

**Q.** And the trabecular bone formation (NOD/SCID/MPSVII mice; [3])?
**A.** increases

**Q.** What about the “bone formation rates at endocortical and periosteal surfaces of the mid-femur, increase” value (NOD/SCID/MPSVII mice; three weeks, co-injected with huMSC) of the same compound?
**A.** 50-100%

**Q.** What about the “cancellous bone volume, BV/TV” value (NOD/SCID/MPSVII mice; vertebral body, three weeks after single injection of huMSC with or without compound) of the same compound?
**A.** 13.9±2.2%

**Q.** What about the “bone formation parameters at the trabecular DF” value (C57BL/6 mice; P<0.05) of the same compound?
**A.** increases

**Q.** What about the “age-related trabecular bone (loss) after peak bone acquisition” value (C57BL/6 mice; mouse, in vivo) of the same compound?
**A.** prevents

**Q.** And the “bone formation parameters at trabecular bone surfaces in the lumbar vertebral bodies (LVB)” value (C57BL/6 mice; mouse, in vivo)?
**A.** increases

**Q.** What about the “dose-response at the cortical bone compartment” value (129SvJ mice; 10 ng vs 250 ng/mouse) of the same compound?
**A.** no dose-responses

**Q.** And the mineral apposition rate (129SvJ mice; distal femur metaphysis)?
**A.** significant increases

**Q.** What about the osteoblast surface (129SvJ mice; distal femur metaphysis) of the same compound?
**A.** significant increases; also recorded: increased

**Q.** What about the “surface-based bone formation rate” value (129SvJ mice; distal femur metaphysis) of the same compound?
**A.** significant increases

**Q.** And the trabecular thickness (129SvJ mice; distal femur microCT, four weeks, two dose levels, vs PBS)?
**A.** increased

**Q.** And the “increase in cancellous bone mass from baseline” value (129SvJ mice; distal femur microCT, four weeks, LLP2A-Ale at higher dose level (250 ng))?
**A.** ~20%

**Q.** What about the “bridges between adjacent trabeculae” value (129SvJ mice; mouse, in vivo) of the same compound?
**A.** formed bridges between adjacent trabeculae

**Q.** And the “early osteoblast maturation (P1NP levels)” value (129SvJ mice; serum)?
**A.** did not change

**Q.** And the “osteoblast function (osteocalcin)” value (129SvJ mice; serum)?
**A.** increased

**Q.** And the cancellous bone mass (129SvJ mice; through increasing the thickness of the trabeculae)?
**A.** increases

**Q.** What about the “proliferating cell populations (BrdU)” value (129SvJ mice; two days after i.v. injection, lumbar vertebral sections) of the same compound?
**A.** increased these proliferating cell populations adjacent to bone surface; also recorded: increases

**Q.** And the cancellous bone formation (129SvJ mice; young normal mice)?
**A.** increases

**Q.** What about the cortical bone formation (129SvJ mice; young normal mice) of the same compound?
**A.** increases
